Measurements from the supplement of paper PMC10307832.

Legend:
Assay in all cases: relative viability (nuclei count vs DMSO), 5 days (fraction); higher = more cells survive
Afatinib + Bortezomib = compound: CN(C)C/C=C/C(=O)Nc1cc2c(Nc3ccc(F)c(Cl)c3)ncnc2cc1O[C@H]1CCOC1 [Afatinib] + CC(C)C[C@H](NC(=O)[C@H](Cc1ccccc1)NC(=O)c1cnccn1)B(O)O [Bortezomib] (partner 0.002 µM)
How it was run: (§1)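 After 5 days of treatment, lung cancer cells in 1536-well plates were fixed and stained in a single step (final 0.05% Triton X-100, 1% formaldehyde, 1 ug/ml Hoechst) and their nuclei counted on 4× images. Treatment had been applied by pin tool the day after seeding as one drug alone or as a fixed anchor-drug dose with five library-drug doses (not always all listed) in √10 steps. Relative viability is the nuclei count of treated wells divided by that of vehicle wells, and values are medians of duplicate plates.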

Afatinib + Pictilisib = compound: CN(C)C/C=C/C(=O)Nc1cc2c(Nc3ccc(F)c(Cl)c3)ncnc2cc1O[C@H]1CCOC1 [Afatinib] + CS(=O)(=O)N1CCN(Cc2cc3nc(-c4cccc5[nH]ncc45)nc(N4CCOCC4)c3s2)CC1 [Pictilisib] (partner 1 µM)
How it was run: as §1

Afatinib + Olaparib = compound: CN(C)C/C=C/C(=O)Nc1cc2c(Nc3ccc(F)c(Cl)c3)ncnc2cc1O[C@H]1CCOC1 [Afatinib] + O=C(c1cc(Cc2n[nH]c(=O)c3ccccc23)ccc1F)N1CCN(C(=O)C2CC2)CC1 [Olaparib] (partner 8 µM)
How it was run: as §1

Afatinib + Trametinib = compound: CN(C)C/C=C/C(=O)Nc1cc2c(Nc3ccc(F)c(Cl)c3)ncnc2cc1O[C@H]1CCOC1 [Afatinib] + CC(=O)Nc1cccc(-n2c(=O)n(C3CC3)c(=O)c3c(Nc4ccc(I)cc4F)n(C)c(=O)c(C)c32)c1 [Trametinib] (partner 0.02 µM)
How it was run: as §1

Cell Line	relative viability (Afatinib + Bortezomib; first compound 0.005 µM)	relative viability (Afatinib + Bortezomib; first compound 0.01581 µM)	relative viability (Afatinib + Bortezomib; first compound 0.05 µM)	relative viability (Afatinib + Bortezomib; first compound 0.1581 µM)	relative viability (Afatinib + Bortezomib; first compound 0.5 µM)	relative viability (Afatinib + Pictilisib; first compound 0.005 µM)	relative viability (Afatinib + Pictilisib; first compound 0.01581 µM)	relative viability (Afatinib + Pictilisib; first compound 0.05 µM)	relative viability (Afatinib + Pictilisib; first compound 0.1581 µM)	relative viability (Afatinib + Pictilisib; first compound 0.5 µM)	relative viability (Afatinib + Olaparib; first compound 0.005 µM)	relative viability (Afatinib + Olaparib; first compound 0.01581 µM)	relative viability (Afatinib + Olaparib; first compound 0.05 µM)	relative viability (Afatinib + Olaparib; first compound 0.1581 µM)	relative viability (Afatinib + Olaparib; first compound 0.5 µM)	relative viability (Afatinib + Trametinib; first compound 0.005 µM)	relative viability (Afatinib + Trametinib; first compound 0.01581 µM)	relative viability (Afatinib + Trametinib; first compound 0.05 µM)	relative viability (Afatinib + Trametinib; first compound 0.1581 µM)	relative viability (Afatinib + Trametinib; first compound 0.5 µM)
ChaGo-K-1	1.18	0.92	0.8	0.924	1.07	0.893	0.45	0.757	0.583	0.88	0.466	0.439	0.447	0.396	0.397	0.922	0.911	0.885	0.866	0.813
EBC-1	0.594	0.59	0.562	0.507	0.705	0.391	0.386	0.465	0.358	0.372	0.714	0.76	0.745	0.676	0.734					
EKVX	0.811	0.655	0.468	0.308	0.199	0.391	0.346	0.203	0.118	0.104	0.602	0.687	0.534	0.283	0.227	0.255	0.246	0.216	0.16	0.162
EMC-BAC-2	1.03	1.05	1	0.927	1.03	0.516	0.531	0.544	0.529	0.496	0.53	0.501	0.595	0.554	0.531	0.945	0.888	0.823	0.873	0.872
EPLC-272H	0.879	0.88	0.905	0.78	0.861	0.342	0.301	0.297	0.324	0.348	0.567	0.776	0.727	0.734	0.595	0.251	0.265		0.229	0.27
H3255	0.252	0.194	0.221	0.184	0.231	0.173	0.118	0.132	0.11	0.104	0.332	0.273	0.277	0.277	0.236	0.297	0.208	0.288	0.195	0.237
HARA	1.02	0.763	0.683	0.836	0.754	0.429	0.331	0.16	0.206	0.195	0.688		0.344	0.462	0.391	0.417		0.38	0.311	0.38
HCC-15	1.04	1.09	1.04	1.04	1.03	0.806	0.72	0.647	0.714	0.66	0.662	0.765	0.744	0.668	0.722	0.338	0.393	0.325	0.35	0.344
